This is an account of results in patent publication US8546376B2, “Pharmaceutical compounds” (Almac Discovery Limited, priority 2009, dated 2013).

Type in all cases: biochemical
One assay deals with T1, AKT3 (Homo sapiens, UniProt Q9Y243).
T1 construct: purchased SignalChem
Put plainly: AKT Kinase Assay (IMAP fluorescent polarisation) vs AKT3. The following applies: activated AKT3, FAM Crosstide substrate. The method in brief: (§1)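 IC50 values came from non-linear regression of % inhibition relative to vehicle, measured by IMAP fluorescence polarisation (485/528 nm) after a 1 h room-temperature reaction of FAM-Crosstide and ATP. Each activated isoform was first exposed to compound for 45 min across fourteen half-log doses.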

The target in the next assay is T2, AKT1 (Homo sapiens, UniProt P31749).
T2 construct: purchased SignalChem
As to the kind of experiment: AKT Kinase Assay (IMAP fluorescent polarisation) vs AKT1. The following applies: activated AKT1, FAM Crosstide substrate. The method, boiled down:
as §1

In the next assay the target is T3, AKT2 (Homo sapiens, UniProt P31751).
T3 construct: purchased SignalChem
Put plainly: AKT Kinase Assay (IMAP fluorescent polarisation) vs AKT2. The following applies: activated AKT2, FAM Crosstide substrate. The method, boiled down: as §1

The structures appear in SMILES notation. Counter-ions that a name gives are not always drawn. Some results are limits rather than exact numbers.

T2 sequence (P31749 whole entry): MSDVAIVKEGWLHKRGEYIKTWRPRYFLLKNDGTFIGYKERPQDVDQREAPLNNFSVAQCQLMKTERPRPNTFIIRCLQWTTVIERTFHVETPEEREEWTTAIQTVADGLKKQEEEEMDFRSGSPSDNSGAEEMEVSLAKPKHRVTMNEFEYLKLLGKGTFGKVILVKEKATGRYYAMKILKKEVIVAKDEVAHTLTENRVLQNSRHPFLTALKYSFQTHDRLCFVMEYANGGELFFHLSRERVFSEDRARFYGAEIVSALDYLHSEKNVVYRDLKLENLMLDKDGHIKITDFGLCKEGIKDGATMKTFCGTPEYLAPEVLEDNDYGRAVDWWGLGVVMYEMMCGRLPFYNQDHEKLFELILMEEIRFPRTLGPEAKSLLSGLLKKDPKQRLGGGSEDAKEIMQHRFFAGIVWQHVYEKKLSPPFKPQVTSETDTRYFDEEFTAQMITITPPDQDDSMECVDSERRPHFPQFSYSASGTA
T1 sequence (Q9Y243 whole entry): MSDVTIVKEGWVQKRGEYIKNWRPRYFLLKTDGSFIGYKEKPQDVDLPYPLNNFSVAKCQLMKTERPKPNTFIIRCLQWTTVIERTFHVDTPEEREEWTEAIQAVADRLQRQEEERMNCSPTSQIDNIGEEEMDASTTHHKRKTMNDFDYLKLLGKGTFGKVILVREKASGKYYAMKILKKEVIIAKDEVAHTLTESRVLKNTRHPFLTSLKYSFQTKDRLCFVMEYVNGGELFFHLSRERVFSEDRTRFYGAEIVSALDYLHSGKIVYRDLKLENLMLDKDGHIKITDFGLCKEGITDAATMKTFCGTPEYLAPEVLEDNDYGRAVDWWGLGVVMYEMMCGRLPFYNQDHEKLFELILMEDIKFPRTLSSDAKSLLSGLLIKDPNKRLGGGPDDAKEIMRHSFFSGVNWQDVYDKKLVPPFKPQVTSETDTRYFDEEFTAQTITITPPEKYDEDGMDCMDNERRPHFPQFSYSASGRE
T3 sequence (P31751 whole entry): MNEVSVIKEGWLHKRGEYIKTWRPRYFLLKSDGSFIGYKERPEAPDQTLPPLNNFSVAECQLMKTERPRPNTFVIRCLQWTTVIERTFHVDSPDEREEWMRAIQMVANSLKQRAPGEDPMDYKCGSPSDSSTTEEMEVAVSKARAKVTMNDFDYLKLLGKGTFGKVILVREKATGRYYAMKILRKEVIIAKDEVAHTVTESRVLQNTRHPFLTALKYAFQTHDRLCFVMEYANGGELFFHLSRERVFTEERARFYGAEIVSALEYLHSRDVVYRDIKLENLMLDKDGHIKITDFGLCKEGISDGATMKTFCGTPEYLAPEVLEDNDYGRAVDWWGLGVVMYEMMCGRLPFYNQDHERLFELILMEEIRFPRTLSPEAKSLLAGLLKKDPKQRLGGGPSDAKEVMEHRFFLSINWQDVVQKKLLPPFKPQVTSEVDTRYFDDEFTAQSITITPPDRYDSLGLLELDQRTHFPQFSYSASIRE

`NC1(c2ccc(-c3c(-c4ccccc4)oc4c(ccc5[nH]c(=O)oc54)c3=O)cc2)CCC1` [Example 91, 7-[4-(1-Amino-cyclobutyl)-phenyl]-8-phenyl-3H-chromeno[7,8-d]oxazole-2,6-dione]: the figures for the IC50 at AKT3, at AKT1 and on AKT2 were over 10000 nM, at most 1000 nM and at most 1000 nM, respectively.

As to `Cc1nn(C)c(C)c1-c1nccc2c(=O)c(-c3ccc(C4(N)CCC4)cc3)c(-c3ccccc3)oc12` [Example 115, 3-(4-(1-aminocyclobutyl)phenyl)-2-phenyl-8-(1,3,5-trimethyl-1H-pyrazol-4-yl)-4H-pyrano[2,3-c]pyridin-4-one], the half-inhibitory concentration (IC50) on AKT3 is over 10000 nM; at AKT1 it was over 10000 nM; on AKT2, 1000 to 10000 nM.

As for `COc1cc2oc(-c3ccccc3)c(-c3ccc(C4(N)CCC4)cc3)c(=O)c2cc1OC` [Example 15, 3-[4-(1-Amino-cyclobutyl)-phenyl]-6,7-dimethoxy-2-phenyl-chromen-4-one], the half-maximal inhibitory concentration (IC50) is 1000 to 10000 nM on AKT3, 1000 to 10000 nM on AKT1 and at most 1000 nM on AKT2.

As for `NC1(c2ccc(-c3c(-c4ccccc4)oc4ccccc4c3=S)cc2)CCC1` [Example 65, 3-[4-(1-Amino-cyclobutyl)-phenyl]-2-phenyl-chromene-4-thione hydrochloride], the concentration for half-maximal inhibition (IC50) on AKT3, at AKT1 and on AKT2 was 1000 to 10000 nM in each case.

In the case of `Cn1ncc2c3oc(-c4ccccc4)c(-c4ccc(C5(N)CCC5)cc4)c(=O)c3ccc21` [Example 60, 3-[4-(1-Amino-cyclobutyl)-phenyl]-7-methyl-2-phenyl-7H-pyrano[2,3-e]indazol-4-one], the half-inhibitory concentration (IC50) at AKT3 was 1000 to 10000 nM; on AKT1 it was at most 1000 nM; on AKT2, at most 1000 nM.

Consider `Cn1cc(-c2cccc3c(=O)c(-c4ccc(C5(N)CCC5)cc4)c(-c4ccccc4)oc23)cn1` [Example 55, 3-[4-(1-Amino-cyclobutyl)-phenyl]-8-(1-methyl-1H-pyrazol-4-yl)-2-phenyl-chromen-4-one hydrochloride], for which the concentration for half-maximal inhibition (IC50) was 1000 to 10000 nM on AKT3, at most 1000 nM at AKT1 and at most 1000 nM at AKT2.

Turning to `NC1(c2ccc(-c3c(-c4ccccc4)oc4ccc(OC(F)(F)F)cc4c3=O)cc2)CCC1` [Example 25, 3-[4-(1-Amino-cyclobutyl)-phenyl]-2-phenyl-6-trifluoromethoxy-chromen-4-one], the half-maximal inhibitory concentration (IC50) on AKT3 was over 10000 nM; at AKT1, over 10000 nM; on AKT2 it was 1000 to 10000 nM.

As to `NC1(c2ccc(-c3c(-c4ccccc4)oc4[nH]c(=O)ccc4c3=O)cc2)CCC1` [Example 36, 3-[4-(1-Amino-cyclobutyl)-phenyl]-2-phenyl-8H-pyrano[2,3-b]pyridine-4,7-dione hydrochloride], the half-inhibitory concentration (IC50) at AKT3 was over 10000 nM; on AKT1, 1000 to 10000 nM; at AKT2, 1000 to 10000 nM.

As for `NC1(c2ccc(-c3c(-c4ccccc4)oc4cc(F)ccc4c3=O)cc2)CCC1` [Example 37, 3-[4-(1-Amino-cyclobutyl)-phenyl]-7-fluoro-2-phenyl-chromen-4-one hydrochloride], the half-inhibitory concentration (IC50) is 1000 to 10000 nM at AKT3, at most 1000 nM on AKT1 and 1000 to 10000 nM on AKT2.

Turning to `COc1ccc2c(=O)c(-c3ccc(C4(N)CCC4)cc3)c(-c3ccccc3)oc2n1` [Example 35, 3-[4-(1-Amino-cyclobutyl)-phenyl]-7-methoxy-2-phenyl-pyrano[2,3-b]pyridin-4-one hydrochloride], the 50% inhibitory concentration (IC50) on AKT3, on AKT1 and at AKT2 was 1000 to 10000 nM in each case.

For `NC1(c2ccc(-c3c(-c4ccccc4)oc4c(ccc5c(I)n[nH]c54)c3=O)cc2)CCC1` [Example 97, 7-[4-(1-Amino-cyclobutyl)-phenyl]-3-iodo-8-phenyl-1H-9-oxa-1,2-diaza-cyclopenta[a]naphthalen-6-one hydrochloride], the IC50 at AKT3 was over 10000 nM; on AKT1 it was at most 1000 nM; at AKT2, 1000 to 10000 nM.

As to `COc1ccccc1-c1nccc2c(=O)c(-c3ccc(C4(N)CCC4)cc3)c(-c3ccccc3)oc12` [Example 118, 3-(4-(1-aminocyclobutyl)phenyl)-8-(2-methoxyphenyl)-2-phenyl-4H-pyrano[2,3-c]pyridin-4-one], the IC50 on AKT3 was 1000 to 10000 nM; on AKT1 it was at most 1000 nM; on AKT2, 1000 to 10000 nM.

As for `NC1(c2ccc(-c3c(-c4ccccc4)oc4c(ccc5cn(CCO)nc54)c3=O)cc2)CCC1` [Example 86, 7-[4-(1-Amino-cyclobutyl)-phenyl]-2-(2-hydroxy-ethyl)-8-phenyl-2H-9-oxa-1,2-diaza-cyclopenta[a]naphthalen-6-one hydrochloride], the concentration for half-maximal inhibition (IC50) at AKT3 is 1000 to 10000 nM; on AKT1, at most 1000 nM; at AKT2, at most 1000 nM.

As to `NC1(c2ccc(-c3c(-c4ccccc4)oc4cc5c(cc4c3=O)OCCO5)cc2)CCC1` [Example 8, 7-[4-(1-Amino-cyclobutyl)-phenyl]-6-Phenyl-2,3-dihydro-1,4,5-trioxa-anthracen-8-one], the figures for the IC50 at AKT3, at AKT1 and at AKT2 were over 10000 nM, 1000 to 10000 nM and 1000 to 10000 nM, respectively.

On to `Cn1nc(Cl)c2ccc3c(=O)c(-c4ccc(C5(N)CCC5)cc4)c(-c4ccccc4)oc3c21` [Example 100, 7-[4-(1-Amino-cyclobutyl)-phenyl]-3-chloro-1-methyl-8-phenyl-1H-9-oxa-1,2-diaza-cyclopenta[a]naphthalen-6-one hydrochloride], for which the concentration for half-maximal inhibition (IC50) on AKT3 was 1000 to 10000 nM; at AKT1 it was at most 1000 nM; at AKT2 it was 1000 to 10000 nM.

As to `COc1ccc2c(=O)c(-c3ccc(C4(N)CCC4)cc3)c(-c3ccccc3)oc2c1` [Example 14], the IC50 on AKT3 was over 10000 nM; at AKT1 it was 1000 to 10000 nM; on AKT2, 1000 to 10000 nM.

Consider `NC1(c2ccc(-c3c(-c4ccccc4)oc4c(ccc5[nH]c(=O)[nH]c54)c3=O)cc2)CCC1` [Example 87, 7-[4-(1-Amino-cyclobutyl)-phenyl]-8-phenyl-1,3-dihydro-chromeno[7,8-d]imidazole-2,6-dione], for which the figures for the half-maximal inhibitory concentration (IC50) at AKT3, at AKT1 and at AKT2 were over 10000 nM, at most 1000 nM and at most 1000 nM, respectively.

In the case of `NC1(c2ccc(-c3c(-c4ccccc4)oc4c(OC(F)F)nccc4c3=O)cc2)CCC1` [Example 32, 3-[4-(1-Amino-cyclobutyl)-phenyl]-8-difluoromethoxy-2-phenyl-pyrano[2,3-c]pyridin-4-one], the results for the IC50 at AKT3, on AKT1 and at AKT2 were 1000 to 10000 nM, 1000 to 10000 nM and at most 1000 nM, respectively.

Turning to `NC1(c2ccc(-c3c(-c4ccccc4)oc4c(Cl)nccc4c3=O)cc2)CCC1` [Example 42, 3-[4-(1-Amino-cyclobutyl)-phenyl]-8-chloro-2-phenyl-pyrano[2,3-c]pyridin-4-one hydrochloride], the concentration for half-maximal inhibition (IC50) on AKT3 is 1000 to 10000 nM; at AKT1, at most 1000 nM; on AKT2, at most 1000 nM.

As to `NC1(c2ccc(-c3c(-c4ccccc4)oc4c(-c5cn[nH]c5)cccc4c3=O)cc2)CCC1` [Example 52, 3-[4-(1-Amino-cyclobutyl)-phenyl]-2-phenyl-8-(1H-pyrazol-4-yl)-chromen-4-one hydrochloride], the IC50 on AKT3, at AKT1 and at AKT2 was at most 1000 nM throughout.

For the compound `N#Cc1cccc(-c2nccc3c(=O)c(-c4ccc(C5(N)CCC5)cc4)c(-c4ccccc4)oc23)c1` [Example 122], the IC50 on AKT3 is over 10000 nM; on AKT1 it was at most 1000 nM; at AKT2, at most 1000 nM.

Take `Cn1cc(-c2nccc3c(=O)c(-c4ccc(C5(N)CCC5)cc4)c(-c4ccccc4)oc23)cn1` [Example 101, 3-[4-(1-Amino-cyclobutyl)-phenyl]-8-(1-methyl-1H-pyrazol-4-yl)-2-phenyl-pyrano[2,3-c]pyridin-4-one hydrochloride]: the 50% inhibitory concentration (IC50) at AKT3, at AKT1 and at AKT2 was at most 1000 nM throughout.

For `NC1(c2ccc(-c3c(-c4ccccc4)oc4c(ccc5cnn(CCO)c54)c3=O)cc2)CCC1` [Example 85, 7-[4-(1-Amino-cyclobutyl)-phenyl]-1-(2-hydroxy-ethyl)-8-phenyl-1H-9-oxa-1,2-diaza-cyclopenta[a]naphthalen-6-one hydrochloride], the results for the IC50 at AKT3, on AKT1 and on AKT2 were 1000 to 10000 nM, at most 1000 nM and at most 1000 nM, respectively.

In the case of `N#Cc1ccc2oc(-c3ccccc3)c(-c3ccc(C4(N)CCC4)cc3)c(=O)c2c1` [Example 21, 3-[4-(1-Amino-cyclobutyl)-phenyl]-4-oxo-2-phenyl-4H-chromene-6-carbonitrile], the results for the IC50 on AKT3, on AKT1 and on AKT2 were over 10000 nM, 1000 to 10000 nM and 1000 to 10000 nM, respectively.

As for `NC1(c2ccc(-c3c(-c4ccccc4)oc4c(ccc5nc(C(F)(F)F)[nH]c54)c3=O)cc2)CCC1` [Example 94, 7-[4-(1-Amino-cyclobutyl)-phenyl]-8-Phenyl-2-trifluoromethyl-1H-chromeno[7,8-d]imidazol-6-one], the IC50 at AKT3 is over 10000 nM; at AKT1, at most 1000 nM; on AKT2, 1000 to 10000 nM.

Turning to `COc1ccc2c(=O)c(-c3ccc(C4(N)CCC4)cc3)c(-c3ccccc3)oc2c1C#N` [Example 12, 3-[4-(1-Amino-cyclobutyl)-phenyl]-7-methoxy-4-oxo-2-phenyl-4H-chromene-8-carbonitrile], the IC50 is 1000 to 10000 nM at AKT3, 1000 to 10000 nM at AKT1 and at most 1000 nM at AKT2.

Regarding `NC1(c2ccc(-c3c(-c4ccccc4)oc4c(C5CC5)cccc4c3=O)cc2)CCC1` [Example 54, 3-[4-(1-Amino-cyclobutyl)-phenyl]-8-cyclopropyl-2-phenyl-chromen-4-one hydrochloride], the figures for the half-inhibitory concentration (IC50) at AKT3, at AKT1 and at AKT2 were 1000 to 10000 nM, at most 1000 nM and at most 1000 nM, respectively.

Consider `COc1cc2c(=O)c(-c3ccc(C4(N)CCC4)cc3)c(-c3ccccc3)oc2cc1-c1ccn[nH]1` [Example 28, 3-[4-(1-Amino-cyclobutyl)-phenyl]-6-methoxy-2-phenyl-7-(2H-pyrazol-3yl)-chromen-4-one], for which the IC50 at AKT3 was over 10000 nM; at AKT1, over 10000 nM; at AKT2, 1000 to 10000 nM.

By IC50 is commonly meant the midpoint of a concentration-inhibition curve.
